The values that follow come from ChEMBL document CHEMBL1201862, “PubChem BioAssay data set” (2004).

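1) Cells in 96-well plates. 2) Compound, 48 h, 5 concentrations. 3) Linear interpolation between surrounding doses. 4) Unreached endpoint = highest concentration. GI50 = concentration required for 50% inhibition of growth.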 The source made the active and inactive calls. Cut-off read from the data, not from the text of the source: active = GI50 up to about 1.1 µM and inactive = higher. Where only a bound is given, the exact number is not on record here.

Experiment in all cases: inhibition of tumour cell growth, NCI panel, 48 h
Assay [1] deals with NCI-H460.
For assay [2], the system named is OVCAR-5.
Assay [3] relates to NCI-H23.
Assay [4] deals with MOLT-4.
Assay [5] relates to CCRF-CEM.
Assay [6] relates to HCC 2998.
The subject of assay [7] is OVCAR-3.
Assay [8] has as its system SNB-19.
Assay [9] relates to RPMI-8226.
Assay [10] relates to LOX IMVI.
Assay [11] relates to OVCAR-4.
Assay [12] has as its system KM12.
Assay [13] relates to EKVX.
The test system of assay [14] is IGROV-1.
For assay [15], the system named is UACC-257.
Assay [16] has as its system HOP-62.
Assay [17] relates to K562.
Assay [18] concerns HOP-92.
For assay [19], the system named is U-251.
Assay [20] has as its system HT-29.

`CC(C)OP(=O)(OC(C)C)/C(=N/Nc1ccc([N+](=O)[O-])cc1)Nc1ccc(N/C(=N\Nc2ccc([N+](=O)[O-])cc2)P(=O)(OC(C)C)OC(C)C)cc1`: the GI50 in assay [1] was 2.31 µM (inactive); in assay [2], 71.8 µM (inactive); in assay [3] it was 13.7 µM (inactive); in assay [4], 2.58 µM (inactive); in assay [5], 2.95 µM (inactive); in assay [6] it was 2.65 µM (inactive). Also, the GI50 was 70.1 µM (inactive) in [7]; 27.4 µM (inactive) in [8]; 5.24 µM (inactive) in [9]; 12.8 µM (inactive) in assay [10]; 35.7 µM (inactive) in assay [11]; 7.93 µM (inactive) in assay [12]. Also, the GI50 in assay [13] was 26.9 µM (inactive); in assay [14], 4.43 µM (inactive); in assay [15], 37.2 µM (inactive); in assay [16], > 100 µM (inactive); in assay [17], 4.79 µM (inactive); in assay [18], > 100 µM (inactive). Besides, the GI50 in assay [19] was 13.2 µM (inactive).
`CCCCNC(=S)Nc1nc(C(=O)NNC(=S)NC2CCCCC2)cs1`: the GI50 in [2] was > 100 µM (inactive); in assay [3] it was > 100 µM (inactive); in assay [4], > 10 µM (inactive); in [5], 67.6 µM (inactive); in [6], > 100 µM (inactive); in [7] it was 91.8 µM (inactive). Also, the GI50 in assay [20], in assay [9], in [10], in [11], in assay [12] and in [13] was > 100 µM (inactive) throughout. Also, the GI50 is 66.5 µM (inactive) in [14]; > 100 µM (inactive) in assay [15]; > 100 µM (inactive) in [16]; 75.5 µM (inactive) in [17]; > 100 µM (inactive) in [18]; 91.4 µM (inactive) in [19].
`COC(=O)C(NC(=O)c1ccccc1)C(c1c(O)cc(O)cc1O)P(=O)(OC)OC` (centres undefined): the GI50 is 95.3 µM (inactive) in assay [1]; > 100 µM (inactive) in [2]; 69.5 µM (inactive) in [3]; > 100 µM (inactive) in assay [4]; 32 µM (inactive) in assay [5]; > 100 µM (inactive) in assay [6]. Moreover, the GI50 in assay [8] is > 100 µM (inactive); in assay [20], > 100 µM (inactive); in [9], 95.9 µM (inactive); in assay [10], > 100 µM (inactive); in assay [11], > 100 µM (inactive); in assay [12], > 100 µM (inactive). For the same compound, the GI50 in [13] is > 100 µM (inactive); in [14], > 100 µM (inactive); in assay [15] it was > 100 µM (inactive); in assay [16], > 100 µM (inactive); in [17], 27.2 µM (inactive); in assay [18], > 100 µM (inactive). In addition, the GI50 in [19] is > 100 µM (inactive).
With `COC(=O)CCC(=O)c1ccc2c(c1)CCC2`, the GI50 in assay [1], in [2], in assay [3], in assay [4], in assay [5] and in assay [6] was > 100 µM (inactive) throughout. The GI50 in assay [7], in assay [8], in assay [20], in assay [9], in [10] and in [11] was > 100 µM (inactive) throughout. The GI50 in [13], in [14], in [15], in assay [16], in assay [17] and in [18] was > 100 µM (inactive) in each case. Moreover, the GI50 in assay [19] is > 100 µM (inactive).
Take `C=C1C(=O)O[C@@H]2[C@H](O)[C@@H](C)[C@@H]3C=CC(=O)[C@@]3(C)[C@H](OC(=O)C=C(C)C)[C@H]12`: the GI50 in assay [1] was 2.11 µM (inactive); in [2], 2.52 µM (inactive); in assay [3], 1.35 µM (inactive); in [4], 0.345 µM (active); in assay [5], 0.183 µM (active); in [6], 1.79 µM (inactive). In addition, the GI50 was 0.895 µM (active) in assay [7]; 5.55 µM (inactive) in assay [8]; 1.26 µM (inactive) in assay [20]; 0.294 µM (active) in [9]; 0.457 µM (active) in assay [10]; 1.98 µM (inactive) in assay [11]. The GI50 in [12] is 1.91 µM (inactive); in [13] it was 1.74 µM (inactive); in assay [14], 1.96 µM (inactive); in assay [15], 1.59 µM (inactive); in assay [16], 4.35 µM (inactive); in [17], 0.199 µM (active). For the same compound, the GI50 is 0.944 µM (active) in [18] and 1.49 µM (inactive) in [19].
On to `Nc1nc(=O)c2c([nH]1)NCC(CNc1ccc(C(=O)N[C@@H](CCC(=O)O)C(=O)O)cc1)N2C=O` (some centres undefined) [LEUCOVORIN CALCIUM], for which the GI50 in assay [1] is > 125 µM (inactive); in assay [2], > 95.3 µM (inactive); in assay [3], > 125 µM (inactive); in [4], > 125 µM (inactive); in assay [5], 39.5 µM (inactive); in assay [6] it was > 125 µM (inactive). Also, the GI50 in assay [7], in assay [8], in assay [20], in assay [9], in assay [10] and in [11] was > 125 µM (inactive) each time. Further, the GI50 is > 125 µM (inactive) in assay [12]; > 125 µM (inactive) in [13]; > 125 µM (inactive) in assay [14]; > 125 µM (inactive) in [15]; > 125 µM (inactive) in assay [16]; 39.5 µM (inactive) in [17]. In addition, the GI50 in assay [18] and in assay [19] was > 125 µM (inactive) throughout.
For the compound `NC(CCCCO)C(=O)O` (centres undefined), the GI50 in assay [1], in assay [2], in assay [3], in assay [5], in assay [6] and in assay [7] was > 100 µM (inactive) each time. Also, the GI50 in [8], in assay [20], in assay [9], in assay [10], in assay [11] and in assay [12] was > 100 µM (inactive) throughout. Further, the GI50 in assay [13], in assay [14], in [15], in assay [16], in [17] and in assay [18] was > 100 µM (inactive) in each case. Besides, the GI50 in [19] was > 100 µM (inactive).
